Test results: publication PMC3171734 (2011)

How the values were obtained:
human DDAH-1 = human DDAH-1 (Homo sapiens, UniProt O94760); assay: dose-dependent inhibition of isolated enzyme; assay type: biochemical
[1] = biological target: T1, dimethylarginine dimethylaminohydrolase (P. aeruginosa DDAH) (Pseudomonas aeruginosa, UniProt Q9I4E3); assay: dose-dependent inhibition of isolated enzyme; assay type: biochemical
T1 sequence (Q9I4E3 1-254): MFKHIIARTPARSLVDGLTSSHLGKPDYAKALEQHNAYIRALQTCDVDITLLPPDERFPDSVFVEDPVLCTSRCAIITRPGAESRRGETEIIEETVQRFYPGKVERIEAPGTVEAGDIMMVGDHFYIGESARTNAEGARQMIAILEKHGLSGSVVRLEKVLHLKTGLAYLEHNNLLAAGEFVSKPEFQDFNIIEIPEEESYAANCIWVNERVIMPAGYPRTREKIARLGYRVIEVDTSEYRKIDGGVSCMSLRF

[2] = substrate: CSC(=N)NCCC[C@H](N)C(=O)O; assay: steady-state kinetics, DTNB-coupled 384-well assay; assay type: biochemical, Pseudomonas aeruginosa

Sequence of human DDAH-1 (O94760 2-285): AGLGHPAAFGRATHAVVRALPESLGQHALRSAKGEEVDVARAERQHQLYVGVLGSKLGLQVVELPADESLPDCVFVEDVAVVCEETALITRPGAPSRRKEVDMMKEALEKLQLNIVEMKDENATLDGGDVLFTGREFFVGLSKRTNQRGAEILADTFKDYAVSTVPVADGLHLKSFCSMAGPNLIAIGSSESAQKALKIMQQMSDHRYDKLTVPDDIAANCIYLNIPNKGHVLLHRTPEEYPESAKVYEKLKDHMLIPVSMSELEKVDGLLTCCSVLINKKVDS

O=c1c2ccccc2[se]n1-c1ccccc1 [ebselen]
IC50 (human DDAH-1): 330 ± 30 nM | IC50 [1]: 96 ± 2 nM

B1: dimethylarginine dimethylaminohydrolase (P. aeruginosa DDAH) (Pseudomonas aeruginosa PAO1) (protein)
chain: MFKHIIARTPARSLVDGLTSSHLGKPDYAKALEQHNAYIRALQTCDVDITLLPPDERFPDSVFVEDPVLCTSRCAIITRPGAESRRGETEIIEETVQRFYPGKVERIEAPGTVEAGDIMMVGDHFYIGESARTNAEGARQMIAILEKHGLSGSVVRLEKVLHLKTGLAYLEHNNLLAAGEFVSKPEFQDFNIIEIPEEESYAANCIWVNERVIMPAGYPRTREKIARLGYRVIEVDTSEYRKIDGGVSCMSLRF
Km [2]: 22 ± 1 µM
